Source: ChEMBL document CHEMBL5241117, “Current leishmaniasis drug discovery” (RSC Med Chem, 2022)

Tests used:
[1] = tested on: Leishmania donovani; assay: Antileishmanial activity against Leishmania donovani; type: functional, organism-based
[2] = tested on: Leishmania donovani; assay: Antileishmanial activity against Leishmania donovani infected in mouse model of visceral leishmaniasis assessed as reduction in parasite load at 25 mg/kg, po administered for 10 days; type: functional; set-up: scale not given: the % may be the effect or the level left; conditions: time 10 day
[3] = Cytotoxicity against human THP-1 cells; type: toxicity, cell-based
[4] = tested on: Leishmania donovani; assay: Antileishmanial activity against Leishmania donovani infected in mouse model of visceral leishmaniasis assessed as reduction in parasite load; type: functional; set-up: scale not given: the % may be the effect or the level left

Row | Compound | EC50 [1] [nM] | Activity [2] [%] | EC50 [3] [nM] | Activity [4] [%]
1 | CCCCCCCCCCCCCCCCOP(=O)([O-])OCC[N+](C)(C)C [MILTEFOSINE] | 900 | – | – | –
2 | C[C@H]1CN(c2n[nH]c3nc(N[C@H]4CC[C@H](NS(=O)(=O)CCC(F)(F)F)CC4)ncc23)CCO1 [GSK-3186899] | 1400 | 99 | > 50000 | –
3 | O=C(Nc1ccc(F)c(-c2ccn3c(N4CCOCC4)cnc3n2)c1)N1CCCC1 [GSK-3494245] | – | – | – | 95
4 | NC[C@@H]1O[C@H](O[C@H]2[C@@H](O)[C@H](O[C@@H]3[C@@H](O)[C@H](N)C[C@H](N)[C@H]3O[C@H]3O[C@H](CO)[C@@H](O)[C@H](O)[C@H]3N)O[C@@H]2CO)[C@H](N)[C@@H](O)[C@@H]1O [PAROMOMYCIN] | 6600 | – | – | –
